Measured values reported in PMC8375664 (Frontiers in Endocrinology, 2021).
Each block holds one compound with its values, some of them ahead of it. Bridge positions count the residues as written; N and C are the ends. Square brackets hold non-standard residues; d marks the D form. Peptide text beside a SMILES is read from it. d2Nal = N[C@H](Cc1ccc2ccccc2c1)C(=O)O

Tests used:
[1] = test system: human gut specimens (duodenum, ileum and colon); conditions: incubation of human gut specimens from duodenum; cited from earlier work
Source text: Glucagon-like peptide-1 (GLP-1) is a gastrointestinal hormone that is secreted from intestinal L-cells after meal intake. It acts to inhibit appetite and potentiate glucose-stimulated insulin secretion ([1]–[3]). These actions led to the development of GLP-1 based drugs, which have been used for more than a decade for type-2-diabetes treatment and recently also to induce weight loss. In parallel with the development and refinement of GLP-1 based drugs, research has been directed at uncovering the molecular mechanisms responsible for GLP-1 secretion, aiming to create a therapeutically relevant ...

[2] = test system: isolated perfused distal mouse small intestine; assay: GLP-1 secretion from isolated perfused mouse small intestine, distal part; conditions: vascular administration at end of experiment
Description: (§1) Male Wistar rats (~250 g) and male C57BL/6JRj mice (~28 g, 11–12 weeks) were purchased from the Janvier Labs (Le Genest-Saint-Isle, France). Mice and rats were housed with ad libitum access to standard chow and water following a 12:12 h light:dark cycle and were acclimatized for a least a week before experiments. On the day of experiment, rats and mice were transferred to our perfusion facility and anesthetized with a subcutaneous injection of hypnorm/midazolam (rats) (0.3 ml/100 g body weight, per ml: 0.08 mg fentanyl, 2.5 mg fluanisone, 0.45 mg Methyl Parahydroxybenzoate, 0.05 mg Propyl Parahydroxybenzoate, Midazolam: 1.25 mg, Matrix Pharmaceuticals, Hellerup, Denmark) or with an intraperitoneal injection of Ketamine/Xylazine (0.1 ml/20 g) (90 mg/kg Ketamine, Ketaminol Vet, MSD Animal Health; 10 mg/kg Xylazine, Rompun Vet., Bayer Animal Health) respectively, to block the activity of pain sensing nerves and to induce surgical anesthesia. […]
(§2) Total GLP-1 concentrations in venous effluents were quantified using an in-house RIA (code: 89390) ([23]). […] Samples were assayed non-extracted and concentrations were calculated by a four-parameter interpolation to a standard curve containing synthetic GLP-1 7–36 amide (H-6795-GMP, Bachem, Bubendorf, Switzerland) ranging from 5 to 320 pmol/L. I^125-labeled GLP-1 7–36 amide (a gift from Novo Nordisk A/S, Bagssværd, Denmark) was used as tracer. […]

[3] = test system: isolated perfused mouse small intestine, upper half; assay: GLP-1 secretion from isolated perfused mouse small intestine, upper half; conditions: vascular administration at end of experiments
Description: as §1, §2

rat MC4R [4] = target: T1, rat MC4R (Rattus norvegicus, UniProt P70596); assay: Inhibition of agonist-induced cAMP production by rat MC4R in transfected COS-7 cells (antagonist mode)
human MC4R = human MC4R (Homo sapiens, UniProt P32245); assay: cAMP production by human MC4R in transfected COS-7 cells (agonist mode)
rat MC4R [5] = target: T1, rat MC4R; assay: cAMP production by rat MC4R in transfected COS-7 cells (agonist mode)
[6] = test system: isolated perfused rat distal small intestine; assay: GLP-1 secretion from isolated perfused rat distal small intestine
Description: as §1, with “anesthesia. For distal perfusions, the rat or mouse was placed on a heated operating table (37°C), the abdominal cavity was opened by a mid-line incision and the large intestine was excised after tying off the supplying vasculature. Furthermore, the upper half of the small intestine was removed. In the rat, the lower half of the small intestine (~50 cm) was retained and perfused in situ after insertion of a catheter into the upper mesenteric artery, while perfusion effluent was collected through a catheter inserted in the portal vein.” for “anesthesia.”
as §2

T1 sequence (P70596 whole entry): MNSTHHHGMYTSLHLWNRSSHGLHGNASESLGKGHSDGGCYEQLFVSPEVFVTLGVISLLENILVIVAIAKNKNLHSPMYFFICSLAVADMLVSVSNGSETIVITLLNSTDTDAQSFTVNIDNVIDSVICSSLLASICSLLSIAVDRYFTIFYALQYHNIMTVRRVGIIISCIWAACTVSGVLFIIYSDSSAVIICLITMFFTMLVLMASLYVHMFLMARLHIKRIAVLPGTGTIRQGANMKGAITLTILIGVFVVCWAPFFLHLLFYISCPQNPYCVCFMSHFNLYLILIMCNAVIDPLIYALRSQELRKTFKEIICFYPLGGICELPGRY
human MC4R, sequence (P32245 whole entry): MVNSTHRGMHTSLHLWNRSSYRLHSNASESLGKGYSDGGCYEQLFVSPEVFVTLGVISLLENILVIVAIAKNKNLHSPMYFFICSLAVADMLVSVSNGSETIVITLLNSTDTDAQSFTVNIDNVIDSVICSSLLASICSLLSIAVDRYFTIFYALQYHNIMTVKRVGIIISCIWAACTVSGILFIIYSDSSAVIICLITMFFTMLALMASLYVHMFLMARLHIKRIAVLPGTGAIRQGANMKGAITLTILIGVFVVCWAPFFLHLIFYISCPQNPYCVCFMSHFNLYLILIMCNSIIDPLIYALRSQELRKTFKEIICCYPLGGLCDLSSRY

Compound: CC(=O)N[C@@H](C)c1cc(Cl)ccc1C1CCN(C(=O)[C@@H]2CN(C(C)(C)C)C[C@H]2c2ccc(F)cc2F)CC1 [MK-0493]
effect on GLP-1 and PYY secretion [1]: increased

Compound: bombesin
effect on GLP-1 output (positive control) [2]: robustly increased GLP-1 output | effect on GLP-1 output (positive control) [3]: robustly increased GLP-1 output

IC50 (rat MC4R [4]): 0.00631 µM | EC50 (human MC4R): 0.035 µM | EC50 (rat MC4R [5]): 0.0158 µM | Emax (rat MC4R [5]; COS-7, read-out: Emax on rat MC4R relative to alpha-MSH Emax): ~40%
Compound: CC(=O)N[C@H]1CSSC[C@@H](C(=O)N2CCC[C@H]2C(=O)N2CCC[C@H]2C(=O)N[C@@H](CCCCN)C(=O)N[C@@H](CC(=O)O)C(N)=O)NC(=O)CNC(=O)[C@H](Cc2c[nH]c3ccccc23)NC(=O)[C@H](CCCNC(=N)N)NC(=O)[C@@H](Cc2ccc3ccccc3c2)NC(=O)[C@H](Cc2c[nH]cn2)NC(=O)[C@H](CCC(=O)O)NC1=O [HS014] (Ac-CEH[d2Nal]RWGCPPKD-NH2; disulfide 1-8)

Compound: OC[C@H]1OC(O)[C@H](O)[C@@H](O)[C@@H]1O (stereo partly shown) [glucose]
total GLP-1 output during first luminal glucose stimulation, control experiment ([6]; luminal glucose 20% w/v, 15 min, baseline 1.8 ± 0.2 pmol, P <0.001, n = 6): 4.8 ± 0.34 pmol | total GLP-1 output during first luminal glucose stimulation, glucose + HS014 experiment (before HS014) ([6]; luminal glucose 20% w/v, 15 min, baseline 2.0 ± 0.5 pmol, P = 0.01, n = 6): 5.6 ± 1.0 pmol | fold increase of GLP-1 secretion by luminal glucose ([6]; luminal glucose infusion): 2–3 fold
